For 15 compounds, pest or weed control results are on record in patent US8865623B2, “Herbicidally active cyclic diones and derivatives thereof, processes for their preparation, compositions, and method of controlling weeds” (Syngenta Limited, priority 2009, dated 2014).

Assay type in all cases: in vivo
For assay [1], the system named is Lolium perenne (LOLPE). Put plainly: Post-emergence herbicidal activity, glasshouse pot test. The settings on record: Lolium perenne, 312 h, rate 250 g/ha, evaluated after 13 days, read-out: Post-emergence activity LOLPE (100=total damage to plant; 0=no damage to plant). An outline of the steps:
(§1)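 Herbicide damage scored 0–100 at 13 d. Pre-emergence: spray 1 d after sowing; post-emergence: spray after 8 d growth. Formulation acetone/water 50:50, 0.5% Tween 20, aqueous spray.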

The test system of assay [2] is Alopecurus myosuroides (ALOMY). The description is as above. The settings on record: Alopecurus myosuroides, 312 h, rate 250 g/ha, evaluated after 13 days, read-out: Post-emergence activity ALOMY (100=total damage to plant; 0=no damage to plant). An outline of the steps:
as §1

Assay [3] relates to Avena fatua (AVEFA). The assay is described as above. The settings on record: Avena fatua, 312 h, rate 250 g/ha, evaluated after 13 days, read-out: Post-emergence activity AVEFA (100=total damage to plant; 0=no damage to plant). An outline of the steps:
as §1

For assay [4], the system named is Echinochloa crus-galli (ECHCG). The assay is described as above. To be noted: Echinochloa crus-galli, 312 h, rate 250 g/ha, evaluated after 13 days, read-out: Post-emergence activity ECHCG (100=total damage to plant; 0=no damage to plant). In a few lines:
as §1

Assay [5] has as its system Lolium perenne (LOLPE). As to the kind of experiment: Pre-emergence herbicidal activity, glasshouse pot test. The settings on record: Lolium perenne, 312 h, Rate 250 g/ha, evaluated after 13 days, read-out: Pre-emergence activity LOLPE (100=total damage to plant; 0=no damage to plant). In a few lines:
as §1

Assay [6] deals with Alopecurus myosuroides (ALOMY). The description is as above. The settings on record: Alopecurus myosuroides, 312 h, Rate 250 g/ha, evaluated after 13 days, read-out: Pre-emergence activity ALOMY (100=total damage to plant; 0=no damage to plant). An outline of the steps: as §1
Assay [7] has as its system Avena fatua (AVEFA). The assay is described as above. To be noted: Avena fatua, 312 h, Rate 250 g/ha, evaluated after 13 days, read-out: Pre-emergence activity AVEFA (100=total damage to plant; 0=no damage to plant). An outline of the steps: as §1
In assay [8] the test system is Echinochloa crus-galli (ECHCG). The description is as above. The settings on record: Echinochloa crus-galli, 312 h, Rate 250 g/ha, evaluated after 13 days, read-out: Pre-emergence activity ECHCG (100=total damage to plant; 0=no damage to plant). An outline of the steps:
as §1

As for `CC1(C)OC(C)(C)C(O)=C(c2cc(Oc3ccc(F)cc3)ccc2C2CC2)C1=O` [Example A-353], the pest or weed control at 250 g/ha is 50% in the assay on Lolium perenne (LOLPE) [1]; 10% in assay [2]; 10% in the assay on Avena fatua (AVEFA) [3]; 100% in assay [4]; 30% with Lolium perenne (LOLPE) [5] (pre-emergence); 0% in assay [6] (pre-emergence). Further, the pest or weed control at 250 g/ha in the assay on Avena fatua (AVEFA) [7] (pre-emergence) was 0%; in assay [8] (pre-emergence) it was 100%.

Consider `CCc1ccc(Oc2ccc(C#N)cc2F)cc1C1=C(O)CC2(CCOCC2)CC1=O` [Example A-270], for which the pest or weed control at 250 g/ha in the assay with Lolium perenne (LOLPE) [1] (glasshouse) is 70%; in assay [2] (glasshouse), 90%; in the assay on Avena fatua (AVEFA) [3] (glasshouse), 90%; in assay [4] (glasshouse), 100%; in the assay with Lolium perenne (LOLPE) [5] (pre-emergence spray) it was 90%; in assay [6] (pre-emergence spray) it was 90%. Further, the pest or weed control at 250 g/ha in the assay with Avena fatua (AVEFA) [7] (pre-emergence spray) amounted to 60%; in assay [8] (pre-emergence spray) it was 100%.

As for `CCc1ccc(Oc2ccc([N+](=O)[O-])cc2C(F)(F)F)cc1C1=C(O)CC(C)(C)CC1=O` [Example A-294], the pest or weed control at 250 g/ha was 20% in the assay on Lolium perenne (LOLPE) [1] (glasshouse); 40% in assay [2] (glasshouse); 40% in the assay with Avena fatua (AVEFA) [3] (glasshouse); 80% in assay [4] (glasshouse); 70% with Lolium perenne (LOLPE) [5] (pre-emergence spray); 60% in assay [6] (pre-emergence spray). Besides, the pest or weed control at 250 g/ha with Avena fatua (AVEFA) [7] (pre-emergence spray) was found to be 0%; in assay [8] (pre-emergence spray), 90%.

For the compound `CCc1ccc(Oc2ccc(Br)cc2Cl)cc1C1=C(O)C(C)(C)OC(C)(C)C1=O` [Example A-9], the pest or weed control at 250 g/ha with Lolium perenne (LOLPE) [1] (glasshouse) is 80%; in assay [2] (glasshouse), 90%; in the assay with Avena fatua (AVEFA) [3] (glasshouse), 100%; in assay [4] (glasshouse) it was 100%; in the assay with Lolium perenne (LOLPE) [5] (pre-emergence spray), 80%; in assay [6] (pre-emergence spray), 60%. For the same compound, the pest or weed control at 250 g/ha was determined as 30% with Avena fatua (AVEFA) [7] (pre-emergence spray) and 100% in assay [8] (pre-emergence spray).

Consider `CCc1ccc(Oc2nc(C(F)(F)F)c(C#N)s2)cc1C1=C(O)C(C)(C)OC(C)(C)C1=O` [Example A-115], for which the pest or weed control at 250 g/ha with Lolium perenne (LOLPE) [1] (glasshouse) stood at 0%; in assay [2] (glasshouse), 0%; with Avena fatua (AVEFA) [3] (glasshouse) it was 10%; in assay [4] (glasshouse) it was 60%; in the assay with Lolium perenne (LOLPE) [5] (pre-emergence spray), 0%; in assay [6] (pre-emergence spray), 0%. Further, the pest or weed control at 250 g/ha (in the assay with Avena fatua (AVEFA) [7] (pre-emergence spray); in assay [8] (pre-emergence spray)) was 0% throughout.

As for `CCc1ccc(Oc2ccc(C#N)c(Cl)c2)cc1C1=C(O)[C@@H]2CC[C@](C)(C1=O)C2(C)C` [Example A-313], the pest or weed control at 250 g/ha in the assay on Lolium perenne (LOLPE) [1] (glasshouse) worked out at 80%; in assay [2] (glasshouse) it was 90%; in the assay with Avena fatua (AVEFA) [3] (glasshouse), 90%; in assay [4] (glasshouse), 100%; with Lolium perenne (LOLPE) [5] (pre-emergence spray), 100%; in assay [6] (pre-emergence spray), 80%. Moreover, the pest or weed control at 250 g/ha came out at 70% in the assay on Avena fatua (AVEFA) [7] (pre-emergence spray) and 100% in assay [8] (pre-emergence spray).

For the compound `CCc1ccc(Oc2nc3ccc(C)cc3s2)cc1C1=C(O)C(C)(C)OC(C)(C)C1=O` [Example A-168], the pest or weed control at 250 g/ha with Lolium perenne (LOLPE) [1] (glasshouse) came to 90%; in assay [2] (glasshouse) it was 90%; in the assay on Avena fatua (AVEFA) [3] (glasshouse) it was 20%; in assay [4] (glasshouse), 90%; with Lolium perenne (LOLPE) [5] (pre-emergence spray) it was 80%; in assay [6] (pre-emergence spray), 60%. Also, the pest or weed control at 250 g/ha with Avena fatua (AVEFA) [7] (pre-emergence spray) worked out at 10%; in assay [8] (pre-emergence spray), 70%.

Take `CCc1ccc(Oc2nc3c(Cl)cc(Cl)cc3s2)cc1C1=C(O)C(C)(C)OC(C)(C)C1=O` [Example A-221]: the pest or weed control at 250 g/ha stood at 90% with Lolium perenne (LOLPE) [1] (glasshouse); 80% in assay [2] (glasshouse); 50% with Avena fatua (AVEFA) [3] (glasshouse); 100% in assay [4] (glasshouse); 60% in the assay with Lolium perenne (LOLPE) [5] (pre-emergence spray); 60% in assay [6] (pre-emergence spray). In addition, the pest or weed control at 250 g/ha in the assay on Avena fatua (AVEFA) [7] (pre-emergence spray) is 40%; in assay [8] (pre-emergence spray), 70%.

Take `CCc1ccc(Oc2ccc(Cl)cn2)cc1C1=C(O)CC(C)(C)CC1=O` [Example A-301]: the pest or weed control at 250 g/ha in the assay with Lolium perenne (LOLPE) [1] (glasshouse) was determined as 90%; in assay [2] (glasshouse), 100%; in the assay with Avena fatua (AVEFA) [3] (glasshouse), 60%; in assay [4] (glasshouse), 100%; in the assay on Lolium perenne (LOLPE) [5] (pre-emergence spray) it was 100%; in assay [6] (pre-emergence spray) it was 70%. Also, the pest or weed control at 250 g/ha in the assay on Avena fatua (AVEFA) [7] (pre-emergence spray) turned out to be 60%; in assay [8] (pre-emergence spray), 100%.

As for `CCc1ccc(Oc2ccc(F)cc2F)cc1C1=C(O)CCCC1=O` [Example A-69], the pest or weed control at 250 g/ha turned out to be 20% in the assay on Lolium perenne (LOLPE) [1] (glasshouse); 10% in assay [2] (glasshouse); 0% in the assay on Avena fatua (AVEFA) [3] (glasshouse); 60% in assay [4] (glasshouse); 30% in the assay with Lolium perenne (LOLPE) [5] (pre-emergence spray); 20% in assay [6] (pre-emergence spray). The pest or weed control at 250 g/ha was 0% in the assay on Avena fatua (AVEFA) [7] (pre-emergence spray) and 80% in assay [8] (pre-emergence spray).

Regarding `CCc1ccc(Oc2cnc3ccccc3n2)cc1C1=C(O)C(C)(C)OC(C)(C)C1=O` [Example A-161], the pest or weed control at 250 g/ha with Lolium perenne (LOLPE) [1] (glasshouse) came to 90%; in assay [2] (glasshouse) it was 100%; in the assay on Avena fatua (AVEFA) [3] (glasshouse), 70%; in assay [4] (glasshouse), 100%; in the assay with Lolium perenne (LOLPE) [5] (pre-emergence spray), 90%; in assay [6] (pre-emergence spray), 70%. Further, the pest or weed control at 250 g/ha in the assay on Avena fatua (AVEFA) [7] (pre-emergence spray) turned out to be 50%; in assay [8] (pre-emergence spray), 100%.

Regarding `CCc1ccc(Oc2ccc(Cl)c(F)c2)cc1C1=C(O)CC2(CCOCC2)CC1=O` [Example A-66], the pest or weed control at 250 g/ha came out at 80% with Lolium perenne (LOLPE) [1] (glasshouse); 100% in assay [2] (glasshouse); 100% with Avena fatua (AVEFA) [3] (glasshouse); 100% in assay [4] (glasshouse); 80% in the assay on Lolium perenne (LOLPE) [5] (pre-emergence spray); 100% in assay [6] (pre-emergence spray). Also, the pest or weed control at 250 g/ha is 90% with Avena fatua (AVEFA) [7] (pre-emergence spray) and 100% in assay [8] (pre-emergence spray).

Take `CCc1ccc(Oc2cc(Cl)c(Cl)nn2)cc1C1=C(O)C(C)(C)OC(C)(C)C1=O` [Example A-129]: the pest or weed control at 250 g/ha in the assay on Lolium perenne (LOLPE) [1] (glasshouse) came out at 10%; in assay [2] (glasshouse) it was 10%; with Avena fatua (AVEFA) [3] (glasshouse), 10%; in assay [4] (glasshouse), 30%; in the assay on Lolium perenne (LOLPE) [5] (pre-emergence spray), 10%; in assay [6] (pre-emergence spray), 10%. Besides, the pest or weed control at 250 g/ha with Avena fatua (AVEFA) [7] (pre-emergence spray) worked out at 0%; in assay [8] (pre-emergence spray), 30%.

Take `CCc1ccc(Oc2ccc3cc(Br)ccc3n2)cc1C1=C(O)C(C)(C)OC(C)(C)C1=O` [Example A-256]: the pest or weed control at 250 g/ha in the assay on Lolium perenne (LOLPE) [1] (glasshouse) stood at 90%; in assay [2] (glasshouse), 90%; in the assay on Avena fatua (AVEFA) [3] (glasshouse), 80%; in assay [4] (glasshouse), 90%; in the assay with Lolium perenne (LOLPE) [5] (pre-emergence spray), 80%; in assay [6] (pre-emergence spray) it was 50%. For the same compound, the figures for the pest or weed control at 250 g/ha (with Avena fatua (AVEFA) [7] (pre-emergence spray); in assay [8] (pre-emergence spray)) were 20% and 80%, respectively.

As for `CCc1ccc(Oc2c(F)cc(C#N)cc2F)cc1C1=C(O)C(C)(C)OC(C)(C)C1=O` [Example A-166], the pest or weed control at 250 g/ha in the assay on Lolium perenne (LOLPE) [1] (glasshouse) worked out at 20%; in assay [2] (glasshouse), 30%; in the assay on Avena fatua (AVEFA) [3] (glasshouse) it was 20%; in assay [4] (glasshouse), 60%; with Lolium perenne (LOLPE) [5] (pre-emergence spray) it was 10%; in assay [6] (pre-emergence spray) it was 20%. Also, the pest or weed control at 250 g/ha stood at 20% with Avena fatua (AVEFA) [7] (pre-emergence spray) and 40% in assay [8] (pre-emergence spray).
